Test results taken from ChEMBL document CHEMBL6096723, “Discovery of novel capsaicin analogs as TRPV1 inhibitors for the treatment of idiopathic pulmonary fibrosis” (Eur J Med Chem, 2025).
The source made the active and inactive calls. No cut-off for these calls is given here.

How the values were obtained:
[1] = system: NIH3T3; test: Antifibrotic activity in mouse NIH3T3 cells assessed as decrease in TGFbeta-induced alpha-SMA expression measured after 48 hrs incubation by Western blotting analysis; assay type: functional, cell-based; details: dose 1-10 µM
[2] = system: Rattus norvegicus; test: Zeta in Sprague-Dawley rat at 50 mg/kg, po measured upto 4 hrs by UPLC-MS/MS analysis; assay type: ADME, organism-based; details: in vivo
[3] = system: Mus musculus; test: Anti-pulmonary fibrotic activity against bleomycin-induced pulmonary fibrosis mouse model assessed as inhibition of Smad2 phosphorylation in lung tissue at 10 to 20 mg/kg, ip administered every alternative day for 8 to 21 days after modeling by immunohistochemical staining based assay; assay type: functional, organism-based; details: dose 10-20 mg/kg, time 8-21 day
[4] = AUC(0 to t) in Sprague-Dawley rat at 50 mg/kg, ip measured upto 4 hrs by UPLC-MS/MS analysis; assay type: ADME, organism-based; details: in vivo
[5] = VRT(0 to t) in Sprague-Dawley rat at 50 mg/kg, po measured upto 4 hrs by UPLC-MS/MS analysis; assay type: ADME, organism-based; details: in vivo
[6] = Cytotoxicity against mouse NIH3T3 cells assessed as survival rate at 10 uM measured after 24 hrs by CCK-8 assay relative to control; assay type: toxicity, cell-based; details: read-out: Survival
[7] = system: NIH3T3; test: Inhibition of TGFbeta1-induced proliferation of mouse NIH3T3 cells assessed as colony formation at 10 uM measured after 7 to 14 days by Crystal violet staining based assay; assay type: functional, cell-based; details: time 7-14 day
[8] = Acute toxicity in Kunming male mouse assessed as Albumin (ALB) level at 180 mg/kg, ip measured after 14 days (reference value: 32.6 g/L); assay type: organism-based; details: in vivo, 336 h, time 14 day
[9] = VRT(0 to infinity) in Sprague-Dawley rat at 50 mg/kg, iv measured upto 4 hrs by UPLC-MS/MS analysis; assay type: ADME, organism-based; details: in vivo
[10] = Acute toxicity in Kunming mouse assessed as organ lesions in heart at 180 mg/kg, ip measured after 14 days by H and E staining based assay; assay type: organism-based; details: in vivo, 336 h, time 14 day
[11] = MRT(0 to infinity) in Sprague-Dawley rat at 50 mg/kg, iv measured upto 4 hrs by UPLC-MS/MS analysis; assay type: ADME, organism-based; details: in vivo
[12] = Acute toxicity in Kunming male mouse assessed as Direct bilirubin (D-Bil) level at 180 mg/kg, ip measured after 14 days (reference value: 6.21 micromol/L); assay type: organism-based; details: in vivo, 336 h, time 14 day
[13] = AUC(0 to infinity) in Sprague-Dawley rat at 50 mg/kg, ip measured upto 4 hrs by UPLC-MS/MS analysis; assay type: ADME, organism-based; details: in vivo
[14] = Acute toxicity in Kunming male mouse assessed as Lactate dehydrogenase (LDH) level at 180 mg/kg, ip measured after 14 days (reference value: 1776.1 U/L); assay type: organism-based; details: in vivo, 336 h, time 14 day
[15] = AUMC(0 to infinity) in Sprague-Dawley rat at 50 mg/kg, po measured upto 4 hrs by UPLC-MS/MS analysis; assay type: ADME, organism-based; details: in vivo
[16] = MRT(0 to infinity) in Sprague-Dawley rat at 50 mg/kg, po measured upto 4 hrs by UPLC-MS/MS analysis; assay type: ADME, organism-based; details: in vivo
[17] = Acute toxicity in Kunming female mouse assessed as Lactate dehydrogenase (LDH) level at 180 mg/kg, ip measured after 14 days (reference value: 1952.7 U/L); assay type: organism-based; details: in vivo, 336 h, time 14 day
[18] = Acute toxicity in Kunming female mouse assessed as Urea level at 180 mg/kg, ip measured after 14 days (reference value: 5.74 mmol/L); assay type: organism-based; details: in vivo, 336 h, time 14 day
[19] = AUC(0 to infinity) in Sprague-Dawley rat at 50 mg/kg, iv measured upto 4 hrs by UPLC-MS/MS analysis; assay type: ADME, organism-based; details: in vivo
[20] = AUMC(0 to t) in Sprague-Dawley rat at 50 mg/kg, iv measured upto 4 hrs by UPLC-MS/MS analysis; assay type: ADME, organism-based; details: in vivo
[21] = Acute toxicity in Kunming female mouse assessed as Creatinine (CREA) level at 180 mg/kg, ip measured after 14 days (reference value: 15.4 micromol/L); assay type: organism-based; details: in vivo, 336 h, time 14 day
[22] = system: NIH3T3; test: Antifibrotic activity in mouse NIH3T3 cells assessed as decrease in TRPV1 expression measured after 48 hrs incubation by Western blotting analysis; assay type: functional, cell-based; details: dose 1-10 µM
[23] = Acute toxicity in Kunming female mouse assessed as Alanine aminotransferase (ALT) level at 180 mg/kg, ip measured after 14 days (reference value: 33.7 U/L); assay type: organism-based; details: in vivo, 336 h, time 14 day
[24] = system: Rattus norvegicus; test: Cz in Sprague-Dawley rat at 50 mg/kg, ip measured upto 4 hrs by UPLC-MS/MS analysis; assay type: ADME, organism-based; details: in vivo
[25] = VRT(0 to infinity) in Sprague-Dawley rat at 50 mg/kg, ip measured upto 4 hrs by UPLC-MS/MS analysis; assay type: ADME, organism-based; details: in vivo
[26] = system: Mus musculus; test: Anti-pulmonary fibrotic activity against bleomycin-induced pulmonary fibrosis mouse model assessed as inhibition of collagen I expression in lung tissue at 10 to 20 mg/kg, ip administered every alternative day for 8 to 21 days after modeling by immunohistochemical staining based assay; assay type: functional, organism-based; details: dose 10-20 mg/kg, time 8-21 day
[27] = system: NIH3T3; test: Inhibition of TGFbeta-induced JNK phosphorylation in mouse NIH3T3 cells at 1 to 10 uM by Western blot analysis; assay type: functional, cell-based; details: dose 1-10 µM
[28] = system: Mus musculus; test: Anti-pulmonary fibrotic activity against bleomycin induced pulmonary fibrosis mouse model assessed as reduction in inflammatory cell infiltration at 10 to 20 mg/kg, ip administered every alternative day for 8 to 21 days after modeling; assay type: functional, organism-based; details: dose 10-20 mg/kg, time 8-21 day
[29] = Acute toxicity in Kunming mouse assessed as organ lesions in liver at 180 mg/kg, ip measured after 14 days by H and E staining based assay; assay type: organism-based; details: in vivo, 336 h, time 14 day
[30] = Apparent volume of distribution in Sprague-Dawley rat at 50 mg/kg, po measured upto 4 hrs by UPLC-MS/MS analysis; assay type: ADME, organism-based; details: in vivo
[31] = VRT(0 to infinity) in Sprague-Dawley rat at 50 mg/kg, po measured upto 4 hrs by UPLC-MS/MS analysis; assay type: ADME, organism-based; details: in vivo
[32] = Tmax in Sprague-Dawley rat at 50 mg/kg, po measured upto 4 hrs by UPLC-MS/MS analysis; assay type: ADME, organism-based; details: in vivo
[33] = Acute toxicity in Kunming male mouse assessed as Urea level at 180 mg/kg, ip measured after 14 days (reference value: 6.54 mmol/L); assay type: organism-based; details: in vivo, 336 h, time 14 day
[34] = system: NIH3T3; test: Inhibition of TGFbeta-induced Smad2 phosphorylation in mouse NIH3T3 cells by Western blot analysis; assay type: functional, cell-based; details: dose 1-10 µM
[35] = AUMC(0 to t) in Sprague-Dawley rat at 50 mg/kg, po measured upto 4 hrs by UPLC-MS/MS analysis; assay type: ADME, organism-based; details: in vivo
[36] = Acute toxicity in Kunming female mouse assessed as Creatine kinase (CK) level at 180 mg/kg, ip measured after 14 days (reference value: 779.7 U/L); assay type: organism-based; details: in vivo, 336 h, time 14 day
[37] = system: Mus musculus; test: Anti-pulmonary fibrotic activity against bleomycin induced pulmonary fibrosis mouse model assessed as reduction in alveolar structure at 10 to 20 mg/kg, ip administered every alternative day for 8 to 21 days after modeling; assay type: functional, organism-based; details: dose 10-20 mg/kg, time 8-21 day
[38] = Apparent volume of distribution in Sprague-Dawley rat at 50 mg/kg, ip measured upto 4 hrs by UPLC-MS/MS analysis; assay type: ADME, organism-based; details: in vivo
[39] = system: NIH3T3; test: Antifibrotic activity in mouse NIH3T3 cells assessed as decrease in TGFbeta-induced Collagen type 1 expression measured after 48 hrs incubation by Western blotting analysis; assay type: functional, cell-based; details: dose 1-10 µM

Q: Which Activity [1] does the source give for `O=C(/C=C/c1ccc(O)c(O)c1)CCCCc1ccccc1` here?
A: Dose-dependent-effect; Compound More Potent Than Nintedanib

Q: What about the Activity [2] of the same compound?
A: 0.84

Q: What about the Activity [3] of the same compound?
A: Active

Q: And the AUC(0-t) at 4 h [4]?
A: 1100 ng·h/mL

Q: And the “VRT(t)” value [5]?
A: 0.75 hr2

Q: What about the viability at 24 h, 10 µM [6] of the same compound?
A: 99.2%

Q: And the inhibition [7]?
A: Active

Q: What about the Activity [8] of the same compound?
A: 31.2 g/L

Q: And the VRT [9]?
A: 0.779 hr2

Q: And the Activity [10]?
A: Non-toxic

Q: And the MRT inf [11]?
A: 47.6 min

Q: What about the Activity [12] of the same compound?
A: 3.94 µmol/L

Q: And the AUC [13]?
A: 1095.38 ng·h/mL

Q: And the Activity [14]?
A: 2486.8 U/L

Q: What about the AUMC [15] of the same compound?
A: 138.748 ug/L.hr

Q: And the MRT inf [16]?
A: 81 min

Q: What about the Activity [17] of the same compound?
A: 2798.2 U/L

Q: What about the Activity [18] of the same compound?
A: 6.51 mmol/L

Q: And the AUC [19]?
A: 2670.601 ng·h/mL

Q: And the AUMCt [20]?
A: 1969.254 ug/L.hr

Q: What about the Activity [21] of the same compound?
A: 16.7 µmol/L

Q: And the Activity [22]?
A: Dose-dependent-effect; Compound More Potent Than Nintedanib

Q: And the Activity [23]?
A: 40.1 U/L

Q: And the Cz [24]?
A: 0.74 µg/L

Q: What about the VRT [25] of the same compound?
A: 0.72 hr2

Q: What about the Activity [26] of the same compound?
A: Active

Q: And the inhibition [27]?
A: Active

Q: What about the Activity [28] of the same compound?
A: Active

Q: What about the Activity [29] of the same compound?
A: Non-toxic

Q: And the Vz [30]?
A: 237.78 L/kg

Q: And the VRT [31]?
A: 1.28 hr2

Q: And the Tmax [32]?
A: 10.2 min

Q: And the Activity [33]?
A: 9.56 mmol/L

Q: And the inhibition [34]?
A: Dose-dependent-effect; Compound Showed Superior Inhibition Effect Than Nintedanib

Q: And the AUMCt [35]?
A: 121.11 ug/L.hr

Q: And the Activity [36]?
A: 1115.7 U/L

Q: What about the Activity [37] of the same compound?
A: Active

Q: What about the Vz [38] of the same compound?
A: 9.28 L/kg

Q: What about the Activity [39] of the same compound?
A: Dose-dependent-effect; Compound More Potent Than Nintedanib
